# Assay results taken from patent EP4660190A1, “PHARMACEUTICALLY ACCEPTABLE SALT OF COMPOUND AND PREPARATION METHOD THEREFOR” (Jiangsu Chia Tai Fenghai Pharmaceutical Co., Ltd., priority 2023, dated 2024).
# Marks after values point to notes of the source that are not given here.
# Legend:
# [1] = tested on: Middle cerebral artery occlusion (MCAO) models of SD rata; test: Rat MCAO model, 28-day dosing, grid walking test; format: in vivo, SD rats; conditions: Mean±SD
# Procedure: (§1) Middle cerebral artery occlusion (MCAO) models of SD rata were constructed by using the suture occlusion method. The rats were administered with the test compound for 28 consecutive days. The pharmacodynamic evaluation on the test compound for cerebral stroke was obtained based on general observation and neurobehavioral assessment. […] The ECA was ligated. The ICA was temporarily occluded. Sutures were threaded at both the proximal end and the distal end of CCA. The distal end was securely ligated, and a loosely tied knot was placed at the proximal end. A small incision was made on the CCA between these two sutures. […] The threading was halted temporarily when reaching the artery clamp of ICA. The pre-ligation suture was further tightened. The artery clamp blocking the blood flow in the ICA was removed, allowing the suture occlusion to be advanced into the ICA until it entered the intracranial region. […] The insertion was stopped at the moment, and the time was recorded. The artery clamp on the CCA was removed and the incision was closed after no active bleeding was observed. The ischemic rats were placed at room temperature to keep their body temperature at 37°C, and anesthesia induction could be carried out 120min later. The suture was slowly and gradually withdrawn under anesthesia until the proximal end retracted into the ECA, thereby initiating reperfusion of the middle cerebral artery. Animals received the designated dosage immediately (within 10 min) after reperfusion. This dosing regimen continued once daily for a duration of 28 days, with the day of operation being defined as D1 (Day 0). […] After the completion of the 28-day dosing period, all surviving animals in the study were euthanized, and their brains were rapidly collected for pathological analysis. […] Table 8 Results of Grid Walking Test
# [2] = Distribution in plasma and brain tissues of rats; format: in vivo, Male SD rats; conditions: rat, 20mg/kg p.o.
# Description: The concentration of compound in the plasma and brain tissue samples was quantified by liquid chromatography-tandem mass spectrometry (LC-MS/MS).
# [3] = tested on: Middle cerebral artery occlusion (MCAO) models of SD rata; test: Rat MCAO model, 28-day dosing, pathological examination (restoration area, perfused blood vessels); format: in vivo, SD rats; conditions: for Proportion of samples showing good recovery (%): restoration area > 30%; for No. of erythrocyte-containing blood vessels ≤10: number of animals
# Procedure: as §1, with “Test […] Table 10 Summary of Tissue Restoration in Each Group” for “Test”
# [4] = tested on: Middle cerebral artery occlusion (MCAO) models of SD rats; test: Rat MCAO model, 7 daily doses, neurobehavioral scoring (Bederson, NSS); format: in vivo; parameters: scale not given here; conditions: for NSS: 60mg/kg
# Description: Middle cerebral artery occlusion (MCAO) models of SD rats were constructed using the suture occlusion method to evaluate the neuroprotective effect of the compound on neurons of rats after cerebral ischemia-reperfusion. […] The ECA was ligated. The ICA was temporarily occluded. Sutures were threaded at both the proximal end and the distal end of CCA. The distal end was securely ligated, and a loosely tied knot was placed at the proximal end. A small incision was made on the CCA between these two sutures. […] The threading was halted temporarily when reaching the artery clamp of ICA. The pre-ligation suture was further tightened. The artery clamp blocking the blood flow in the ICA was removed, allowing the suture occlusion to be advanced into the ICA until it entered the intracranial region. […] The insertion was stopped at the moment, and the time was recorded. The artery clamp on the CCA was removed and the incision was closed after no active bleeding was observed. The ischemic rats were placed at room temperature to keep their body temperature at 37°C, and anesthesia induction could be carried out 120min later. The suture was slowly and gradually withdrawn when the rats were maintained under anesthesia, so that the proximal end of the suture returned to the ECA, thereby initiating reperfusion of the middle cerebral artery. […] A single dose was administered immediately after reperfusion (within 10 minutes), followed by one dose per day for a total of 7 consecutive doses (including the first dose). Except for the initial administration, all subsequent doses were given between 4:00 PM and 7:00 PM each day. […] Animals were euthanized 7 days after ischemia reperfusion, and the brains were rapidly taken, frozen, and dissected for TTC staining. The normal tissues were rose-red after staining, and the infarcted tissues were white. The infarct size (%) percentage, calculated as the weight of infarcted tissues to the weight of the whole brain, is used to evaluate the degree of cerebral ischemic injury in rats. […] Table 12 Cerebral infarct size and cerebral infarction inhibition rate of experimental animals (2) Neurobehavioral scoring: […] Table 13: Results of Neurobehavioral Scores in Animals
# [5] = 60mg/kg p.o. q.d. 28 days, N = 14
# [6] = high dose 20mg/kg p.o. q.d. 28 days
# [7] = high dose 20mg/kg p.o. q.d. 28 days, N = 12
# [8] = low dose 6mg/kg p.o. q.d. 28 days
# [9] = low dose 6mg/kg p.o. q.d. 28 days, N = 12
compound,measurement,setting,value
"CCCCC1OC(=O)c2ccccc21 (stereo not drawn) [Butylphthalide, butylphthalide, reference compound]",Misstep frequency (times),"[1]; 60mg/kg p.o. q.d., 1W after operation, listed as NBP",7.37±3.03 times
same,Misstep frequency (times),"[1]; 60mg/kg p.o. q.d., 2W after operation",8.10± 2.97 times
same,Misstep frequency (times),"[1]; 60mg/kg p.o. q.d., 3W after operation",6.27± 2.890 times
same,Misstep frequency (times),"[1]; 60mg/kg p.o. q.d., 4W after operation",2.10± 1.46 times
same,Measured value in brain tissues Concentration,[2]; 0.5 h,28.5 ng/g
same,Measured value in plasma Concentration,[2]; 0.5 h,26.0 ng/mL
same,Measured value in brain tissues Concentration,[2]; 1 h,22.8 ng/g
same,Measured value in plasma Concentration,[2]; 1 h,19.1 ng/mL
same,Measured value in brain tissues Concentration,[2]; 4h,10.2 ng/g
same,Measured value in plasma Concentration,[2]; 4h,7.2 ng/mL
same,Measured value in plasma Concentration,[2]; 24 h,1.7 ng/mL
same,Proportion of erythrocyte-containing blood vessels>10 (%),[3]; 60mg/kg p.o. q.d. 28 days,93.3%
same,Number of samples Restoration area > 30%,[3]; [5],3
same,Number of samples Restoration area ≤ 30%,[3]; [5],11
same,Proportion of samples showing good recovery (%),[3]; 60mg/kg p.o. q.d. 28 days,21.4%
same,No. of erythrocyte-containing blood vessels ≤10,"[3]; 60mg/kg p.o. q.d. 28 days, N = 15",1
same,Bederson,"[4]; 60mg/kg group, score after surgery, Mean±SD",3.00± 0.00
same,NSS,"[4]; D0 (one day before surgery), Mean±SD",0.00± 0.00
same,NSS,"[4]; D2 (1 day after surgery), Mean±SD",6.71± 1.36
same,NSS,"[4]; D4 (3 days after surgery), Mean±SD",5.75±0.92
same,NSS,"[4]; D6 (5 days after surgery), Mean±SD",4.88± 1.73
same,NSS,"[4]; D8 (7 days after surgery), Mean±SD",4.04±1.20
CCC/C(O)=C1/C(=O)Oc2ccccc21 [Compound (I)],Misstep frequency (times),"[1]; high dose 20mg/kg p.o. q.d., 1W after operation, 20 mg/kg",4.23±1.44 times
same,Misstep frequency (times),"[1]; high dose 20mg/kg p.o. q.d., 1W after operation, listed as compound (I), 20 mg/kg",4.23±1.44 times
same,Misstep frequency (times),"[1]; high dose 20mg/kg p.o. q.d., 2W after operation",3.23± 2.56 times
same,Misstep frequency (times),"[1]; high dose 20mg/kg p.o. q.d., 3W after operation",2.50± 0.81 times
same,Misstep frequency (times),"[1]; high dose 20mg/kg p.o. q.d., 4W after operation",1.42± 1.11 times
same,Misstep frequency (times),"[1]; low dose 6mg/kg p.o. q.d., 1W after operation, 6 mg/kg",5.33± 2.33 times
same,Misstep frequency (times),"[1]; low dose 6mg/kg p.o. q.d., 1W after operation, listed as compound (I), 6 mg/kg",5.33±2.33 times
same,Misstep frequency (times),"[1]; low dose 6mg/kg p.o. q.d., 2W after operation",6.33± 3.53 times
same,Misstep frequency (times),"[1]; low dose 6mg/kg p.o. q.d., 3W after operation",4.38± 2.44 times
same,Misstep frequency (times),"[1]; low dose 6mg/kg p.o. q.d., 4W after operation",2.58± 1.55 times
same,Measured value in brain tissues Concentration,[2]; 0.5 h,8733.3 ng/g
same,Measured value in plasma Concentration,[2]; 0.5 h,241333.3 ng/mL
same,Measured value in brain tissues Concentration,[2]; 1 h,5726.7 ng/g
same,Measured value in plasma Concentration,[2]; 1 h,192333.3 ng/mL
same,Measured value in brain tissues Concentration,[2]; 4h,5030.0 ng/g
same,Measured value in plasma Concentration,[2]; 4h,182333.3 ng/mL
same,Measured value in brain tissues Concentration,[2]; 24 h,285.3 ng/g
same,Measured value in plasma Concentration,[2]; 24 h,23500.0 ng/mL
same,Proportion of erythrocyte-containing blood vessels>10 (%),[3]; [6],92.3%
same,Number of samples Restoration area > 30%,[3]; [7],9**
same,Number of samples Restoration area ≤ 30%,[3]; [7],3
same,Proportion of samples showing good recovery (%),[3]; [6],75.0%
same,Proportion of erythrocyte-containing blood vessels>10 (%),[3]; [8],100%
same,Number of samples Restoration area > 30%,[3]; [9],4
same,Number of samples Restoration area ≤ 30%,[3]; [9],8
same,Proportion of samples showing good recovery (%),[3]; [8],33.3%
same,No. of erythrocyte-containing blood vessels ≤10,"[3]; high dose 20mg/kg p.o. q.d. 28 days, N = 13",1
same,No. of erythrocyte-containing blood vessels ≤10,[3]; [9],0
(Z)-3-(1-hydroxybutenyl)benzofuran-2-one tromethamine salt [Example 10],Bederson,"[4]; rat, in vivo",3.00± 0.00
